Laboratory results as given in PubChem BioAssay AID256 (DTP/NCI, 2004).
Where “and” joins values, the source holds several entries; their conditions need not be identical. Equal entries are not always repeated. Inconclusive results and toxic doses are left out.

Test system: CD2F1 mice, L1210 leukemia ip, survival T/C
Experiment: NCI In Vivo Anticancer Drug Screen. Data for tumor model L1210 Leukemia (intraperitoneal) in CD2F1 (CDF1) mice
Details: higher = longer survival
In short: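 Compound-dosed mice with transplantable tumor versus matched vehicle controls; endpoint ratio T/C reported.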

[1] = endpoint: mean survival time, dose: 75.0 mg/kg/injection, schedule: Q01DX001 (ip), vehicle: saline
[2] = endpoint: mean survival time, dose: 150.0 mg/kg/injection, schedule: Q01DX001 (ip), vehicle: saline
[3] = endpoint: mean survival time, dose: 100.0 mg/kg/injection, schedule: Q01DX009 (ip), vehicle: saline with Tween-80
[4] = endpoint: mean survival time, dose: 100.0 mg/kg/injection, schedule: Q04DX003 (ip), vehicle: saline with Tween-80
[5] = endpoint: mean survival time, dose: 200.0 mg/kg/injection, schedule: Q01DX009 (ip), vehicle: saline with Tween-80
[6] = endpoint: mean survival time, dose: 200.0 mg/kg/injection, schedule: Q04DX003 (ip), vehicle: saline with Tween-80
[7] = endpoint: mean survival time, dose: 400.0 mg/kg/injection, schedule: Q04DX003 (ip), vehicle: saline with Tween-80
[8] = endpoint: mean survival time, dose: 100.0 mg/kg/injection, schedule: Q01DX001 (ip), vehicle: saline with Tween-80
[9] = endpoint: mean survival time, dose: 200.0 mg/kg/injection, schedule: Q01DX001 (ip), vehicle: saline with Tween-80
[10] = endpoint: mean survival time, dose: 12.5 mg/kg/injection, schedule: Q01DX009 (ip), vehicle: saline with Tween-80
[11] = endpoint: mean survival time, dose: 50.0 mg/kg/injection, schedule: Q01DX009 (ip), vehicle: saline with Tween-80
[12] = endpoint: mean survival time, dose: 100.0 mg/kg/injection, schedule: Q01DX001 (ip), vehicle: saline
[13] = endpoint: mean survival time, dose: 200.0 mg/kg/injection, schedule: Q01DX001 (ip), vehicle: saline
[14] = endpoint: mean survival time, dose: 400.0 mg/kg/injection, schedule: Q01DX001 (ip), vehicle: saline
[15] = endpoint: mean survival time, dose: 400.0 mg/kg/injection, schedule: Q01DX001 (ip), vehicle: saline with Tween-80
[16] = endpoint: mean survival time, dose: 400.0 mg/kg/injection, schedule: Q01DX009 (ip), vehicle: saline with Tween-80

CCOC1(OCC)C2C=CC1C(C#N)(C#N)C2(C#N)C#N
T/C [1]: 103 % of control | T/C [2]: 104 % of control

O=C(NCCCCCCCCCCNC(=O)Nc1ccc(C2=NCCCN2)cc1)Nc1ccc(C2=NCCCN2)cc1
T/C (endpoint: mean survival time, dose: 5.0 mg/kg/injection, schedule: Q01DX009 (ip), vehicle: saline): 103 % of control | T/C (endpoint: mean survival time, dose: 8.0 mg/kg/injection, schedule: Q01DX009 (ip), vehicle: saline): 117 % of control | T/C (endpoint: mean survival time, dose: 19.0 mg/kg/injection, schedule: Q01DX009 (ip), vehicle: saline): 121 % of control

C=C(C)C(=O)OCCN(C)C (tested in a mixture with another compound)
T/C [3]: 97 % of control | T/C [4]: 100 % of control | T/C [5]: 106 % of control | T/C [6]: 122 % of control | T/C [7]: 92 % of control

CC(O)CNc1nc(N)[nH]c(=O)c1[N+](=O)[O-] (stereo not given)
T/C [8]: 94 % of control | T/C [9]: 89 % of control

Cc1ccc[n+](CCc2c[nH]c3ccccc23)c1
T/C [10]: 100 % of control | T/C (endpoint: mean survival time, dose: 25.0 mg/kg/injection, schedule: Q01DX009 (ip), vehicle: saline with Tween-80): 96 % of control | T/C (endpoint: mean survival time, dose: 25.0 mg/kg/injection, schedule: Q04DX003 (ip), vehicle: saline with Tween-80): 98 % of control | T/C [11]: 101 % of control | T/C (endpoint: mean survival time, dose: 50.0 mg/kg/injection, schedule: Q04DX003 (ip), vehicle: saline with Tween-80): 95 % of control

CCOC(=O)C(Cc1ccccc1)P(=O)(OCC)OCC (stereo not given)
T/C [12]: 108 % of control | T/C [13]: 108 % of control | T/C [14]: 100 % of control

C#CCO
T/C (endpoint: mean survival time, dose: 12.0 mg/kg/injection, schedule: Q04DX003 (ip), vehicle: saline): 94 % of control | T/C (endpoint: mean survival time, dose: 25.0 mg/kg/injection, schedule: Q04DX003 (ip), vehicle: saline): 97 % of control | T/C (endpoint: mean survival time, dose: 50.0 mg/kg/injection, schedule: Q04DX003 (ip), vehicle: saline): 103 % of control

CC(C)(C)C1=CC(=CN(O)C(C)(C)C)C=C(C(C)(C)C)C1=O
T/C [8]: 100 % of control | T/C [9]: 103 % of control | T/C [15]: 100 % of control

O=[N+]([O-])c1cccc(N=Cc2ccc3c(c2)OCO3)c1
T/C (endpoint: mean survival time, dose: 100.0 mg/kg/injection, schedule: Q04DX003 (ip), vehicle: alcohol): 105 % of control | T/C (endpoint: mean survival time, dose: 200.0 mg/kg/injection, schedule: Q04DX003 (ip), vehicle: alcohol): 108 % of control | T/C (endpoint: mean survival time, dose: 400.0 mg/kg/injection, schedule: Q04DX003 (ip), vehicle: alcohol): 97 % of control

CCN(CC)C(=O)c1ccc[n+](CC(=O)Nc2ccccc2)c1
T/C (endpoint: mean survival time, dose: 25.0 mg/kg/injection, schedule: Q01DX009 (ip), vehicle: saline): 108 % of control | T/C (endpoint: mean survival time, dose: 50.0 mg/kg/injection, schedule: Q01DX009 (ip), vehicle: saline): 105 % of control | T/C (endpoint: mean survival time, dose: 100.0 mg/kg/injection, schedule: Q01DX009 (ip), vehicle: saline): 97 % of control | T/C (endpoint: mean survival time, dose: 100.0 mg/kg/injection, schedule: Q04DX003 (ip), vehicle: saline): 104 % of control

Nc1ccc(-c2ccc(N)cc2O)c(O)c1
T/C [11]: 98 % of control | T/C [3]: 95 % of control

O=c1[nH]cnc2c1CN(c1ccc(Cl)cc1)C2
T/C [1]: 101 % of control | T/C [2]: 90 % of control | T/C (endpoint: mean survival time, dose: 300.0 mg/kg/injection, schedule: Q01DX001 (ip), vehicle: saline): 93 % of control

Cc1cc(N(CCOS(C)(=O)=O)CCOS(C)(=O)=O)ccc1C=Nc1ccc(-c2csc(Cc3ccccc3)n2)cc1
T/C (endpoint: mean survival time, dose: 6.25 mg/kg/injection, schedule: Q01DX009 (ip), vehicle: saline with Tween-80): 102 % of control | T/C [10]: 105 % of control

CCN(C(=O)NC)c1cc(C)ccc1OC
T/C [3]: 87 % of control | T/C [5]: 87 % of control | T/C [16]: 98 % of control

N#CCCP(CCC#N)CCCCP(CCC#N)CCC#N
T/C (endpoint: mean survival time, dose: 6.25 mg/kg/injection, schedule: Q01DX001 (ip), vehicle: saline with Tween-80): 100 % of control | T/C (endpoint: mean survival time, dose: 12.5 mg/kg/injection, schedule: Q01DX001 (ip), vehicle: saline with Tween-80): 96 % of control | T/C (endpoint: mean survival time, dose: 25.0 mg/kg/injection, schedule: Q01DX001 (ip), vehicle: saline with Tween-80): 98 % of control and 102 % of control

CN1c2ccccc2N(C)c2ccccc21
T/C [3]: 94 % of control | T/C [4]: 101 % of control | T/C [6]: 98 % of control | T/C [7]: 96 % of control

O=C1c2ccccc2CC1c1ccccc1 (stereo not given)
T/C (endpoint: mean survival time, dose: 12.5 mg/kg/injection, schedule: Q01DX009 (ip), vehicle: other): 102 % of control | T/C (endpoint: mean survival time, dose: 25.0 mg/kg/injection, schedule: Q01DX009 (ip), vehicle: other): 102 % of control | T/C (endpoint: mean survival time, dose: 50.0 mg/kg/injection, schedule: Q01DX009 (ip), vehicle: other): 97 % of control | T/C (endpoint: mean survival time, dose: 100.0 mg/kg/injection, schedule: Q01DX009 (ip), vehicle: other): 96 % of control | T/C (endpoint: mean survival time, dose: 200.0 mg/kg/injection, schedule: Q01DX009 (ip), vehicle: other): 100 % of control

O=Cc1c2ccccc2cc2ccccc12
T/C (endpoint: mean survival time, dose: 89.0 mg/kg/injection, schedule: Q01DX001 (ip), vehicle: saline): 170 % of control | T/C (endpoint: mean survival time, dose: 133.0 mg/kg/injection, schedule: Q01DX001 (ip), vehicle: saline): 167 % of control | T/C [13]: 162 % of control

O=S(=O)(NC1CCc2ccccc21)c1ccccc1 (stereo not given)
T/C [4]: 98 % of control | T/C [6]: 97 % of control | T/C [7]: 98 % of control

c1ccc(OCC2CO2)c(OCC2CO2)c1 (stereo not given)
T/C (endpoint: median survival time, dose: 25.0 mg/kg/injection, schedule: Q01DX009 (ip), vehicle: saline with Tween-80): 110 % of control and 111 % of control | T/C (endpoint: median survival time, dose: 50.0 mg/kg/injection, schedule: Q01DX009 (ip), vehicle: saline with Tween-80): 113 % of control and 117 % of control | T/C (endpoint: median survival time, dose: 200.0 mg/kg/injection, schedule: Q01DX009 (ip), vehicle: saline with Tween-80): 153 % of control and 168 % of control | T/C (endpoint: median survival time, dose: 400.0 mg/kg/injection, schedule: Q01DX009 (ip), vehicle: saline with Tween-80): 104 % of control

CCOC(=O)CC1(C)C(=O)NC(=O)N1C(C)=O (stereo not given)
T/C [8]: 105 % of control | T/C [3]: 103 % of control | T/C [9]: 97 % of control | T/C [5]: 103 % of control | T/C [15]: 94 % of control | T/C [16]: 116 % of control

CCCCCCCC(=O)N1C=CN(C(=O)CCCCCCC)C1
T/C (endpoint: mean survival time, dose: 75.0 mg/kg/injection, schedule: Q04DX003 (ip), vehicle: saline): 104 % of control | T/C (endpoint: mean survival time, dose: 150.0 mg/kg/injection, schedule: Q04DX003 (ip), vehicle: saline): 98 % of control | T/C (endpoint: mean survival time, dose: 300.0 mg/kg/injection, schedule: Q04DX003 (ip), vehicle: saline): 98 % of control

Nc1nc(-c2cccc([N+](=O)[O-])c2)c(N=Nc2ccccc2)s1
T/C [8]: 95 % of control | T/C [9]: 100 % of control

COc1cc2c(cc1OC)C(Cc1ccccc1[N+](=O)[O-])=NCC2
T/C [12]: 101 % of control | T/C [13]: 94 % of control | T/C [14]: 95 % of control

Cc1ccc(S(=O)(=O)O)cc1.Cc1ccc(S(=O)(=O)O)cc1.[NH-]C1CCCCC1[NH-].[Pt+2]
T/C (endpoint: mean survival time, dose: 2.0 mg/kg/injection, schedule: Q04DX003 (ip), vehicle: other): 177 % of control | T/C (endpoint: mean survival time, dose: 4.0 mg/kg/injection, schedule: Q04DX003 (ip), vehicle: other): 255 % of control | T/C (endpoint: mean survival time, dose: 8.0 mg/kg/injection, schedule: Q04DX003 (ip), vehicle: other): 183 % of control

CCn1cnccc1=O
T/C (endpoint: mean survival time, dose: 100.0 mg/kg/injection, schedule: Q04DX002 (ip), vehicle: saline): 92 % of control | T/C (endpoint: mean survival time, dose: 200.0 mg/kg/injection, schedule: Q04DX002 (ip), vehicle: saline): 109 % of control | T/C (endpoint: mean survival time, dose: 300.0 mg/kg/injection, schedule: Q04DX002 (ip), vehicle: saline): 115 % of control | T/C (endpoint: mean survival time, dose: 450.0 mg/kg/injection, schedule: Q04DX002 (ip), vehicle: saline): 117 % of control

O=C(c1ccccc1)c1c(-c2ccccc2)c(-c2ccccc2)c(-c2ccccc2)c(-c2ccccc2)c1-c1ccccc1
T/C [4]: 89 % of control | T/C [6]: 90 % of control | T/C [7]: 90 % of control

[Br][Pt+2][Br].[NH-]c1cccc(F)c1.[NH-]c1cccc(F)c1
T/C (endpoint: mean survival time, dose: 3.13 mg/kg/injection, schedule: Q04DX003 (ip), vehicle: distilled water + Tween-80): 97 % of control | T/C (endpoint: mean survival time, dose: 6.25 mg/kg/injection, schedule: Q04DX003 (ip), vehicle: distilled water + Tween-80): 103 % of control | T/C (endpoint: mean survival time, dose: 12.5 mg/kg/injection, schedule: Q04DX003 (ip), vehicle: distilled water + Tween-80): 101 % of control | T/C (endpoint: mean survival time, dose: 25.0 mg/kg/injection, schedule: Q04DX003 (ip), vehicle: distilled water + Tween-80): 104 % of control | T/C (endpoint: mean survival time, dose: 50.0 mg/kg/injection, schedule: Q04DX003 (ip), vehicle: distilled water + Tween-80): 109 % of control | T/C (endpoint: mean survival time, dose: 100.0 mg/kg/injection, schedule: Q04DX003 (ip), vehicle: distilled water + Tween-80): 107 % of control
